The results in this text go back to patent US20140378451A1, “Cannabinoid-2-Receptor Agonists” (ISIS INNOVATION LIMITED, priority 2011, published 2014).

Molecules are shown by their SMILES.

One assay concerns the target T1, hCB2R (Homo sapiens, UniProt P34972).
T1 construct: unnamed tag of the plasmid; expressed in transfected cells
The assay is described as follows: cAMP assay on hCB2R clone 3D8.3 (transfected CHO-K1 cells). Particulars: for IC50: cAMP, hCNR2 CHO-K1 3D8.3 clone, read-out: Assay 1 IC50. Format: cell-based. The protocol:
(§1) Compounds were evaluated for their CB2R agonist potency in the following assays:
Assay 1—cAMP Assay on hCB2R Clone 3D8.3:
Chinese hamster ovary cells (CHO)-K1 were transfected with hCB2R plasmid using Genejuice (Merck). After 48 h the cells were transferred into flasks in the presence of the antibiotic G418 and expanded (with continuous replenishment of the antibiotic). Two single-cell cloning rounds were then performed, followed by verification of the presence of the tag of the plasmid and confirming the receptor was functional in cAMP studies. For the screening of compounds: Briefly, hCNR2 CHO-K1 (3D8.3 clone) cells were plated in Optimem+1% FCS (30000 cells, 100 ul per well) in half-area 96-well plates (Corning 3885) and placed in an incubator 37° C. 5% CO2 overnight. Next day, the medium was aspirated and replaced with ‘antibody solution’ (22.5 ul) (provided concentrated, diluted 1 in 3 with ‘assay buffer’ provided). The freshly made compounds (at a ×4 final concentration) or solvent alone (1.2% DMSO) were added to the wells and incubated for 30 minutes in a 37° C. incubator 5% CO2. A mixture of: Lysis solution (38%), substrates (Emerald-II™ (10%) and Galacton-Star® (2%)) and enzyme donor-labeled cAMP (50%) was added to the wells and incubated in the dark for one hour at room temperature. 30 μl of detection reagent (enzyme acceptor, provided) was then added to the wells and incubated in the dark for 3 hours at room temperature. The luminescence was then read with a Perkin-Elmer luminometer.
Background: Cyclic AMP is a second messenger, typically raised through Gs and lowered through Gi signalling.

Another assay has as its target T2, hCNR2 (CB2R) (Homo sapiens, UniProt P34972).
T2 construct: host or cells: CHO-K1 (purchased recombinant cell line)
The assay is described as follows: DiscoveRx cAMP Hunter Express GPCR assay (hCNR2 CHO-K1 cells). In kind it is cell-based. The following applies: for IC50: cAMP Hunter eXpress, hCNR2 CHO-K1 cells, read-out: Assay 2 IC50. As for the experimental part:
as §1
Assay 2—DiscoveRx cAMP Hunter Express GPCR Assay
The cAMP Hunter eXpress GPCR assay kit and cells used are from DiscoveRx Corporation (95-0040E2) using the manufacturer's protocol without the optional IBMX step. […] Briefly, hCNR2 CHO-K1 cells were plated in the provided medium (50 ul per well) in half-area 96-well plates (Corning 3885) and placed in an incubator 37° C. 5% CO2 overnight. Next day, the medium was aspirated and replaced with ‘antibody solution’ (22.5 ul) (provided concentrated, diluted 1 in 3 with ‘assay buffer’ provided). The freshly made compounds (at a ×4 final concentration) or solvent alone (1.2% DMSO) were added to the wells and incubated for 30 minutes in a 37° C. incubator 5% CO2. A mixture of lysis solution and two substrates (provided with the DiscoveRx kit) was added to the wells and incubated in the dark for one hour at room temperature. A detection reagent (provided) was then added to the wells and incubated in the dark for 3 hours at room temperature. The luminescence was then read with a Perkin-Elmer luminometer.

T2 sequence (P34972 whole entry): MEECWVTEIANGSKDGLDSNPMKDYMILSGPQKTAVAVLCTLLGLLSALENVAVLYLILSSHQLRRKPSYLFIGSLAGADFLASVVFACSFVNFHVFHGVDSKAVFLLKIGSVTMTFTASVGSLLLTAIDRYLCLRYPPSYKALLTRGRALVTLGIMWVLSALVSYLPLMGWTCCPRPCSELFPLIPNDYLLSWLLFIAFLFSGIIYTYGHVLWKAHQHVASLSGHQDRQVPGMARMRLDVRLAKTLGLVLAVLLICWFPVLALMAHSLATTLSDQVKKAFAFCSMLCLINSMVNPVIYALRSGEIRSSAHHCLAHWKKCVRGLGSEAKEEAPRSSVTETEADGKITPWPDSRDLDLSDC
T1 sequence (P34972 whole entry): as above

The IC50 is the concentration at which inhibition is half-maximal. With `N#Cc1ccccc1CSc1nnc2c3ccccc3n(Cc3ccccc3[N+](=O)[O-])c2n1` [Example 10, 2′-(((5-(2″-Nitrobenzyl)-5H-[1,2,4]triazino[5,6-b]indol-3-yl)thio)methyl)benzonitrile], the figures for the IC50 on hCB2R and on hCNR2 (CB2R) were 355 nM and 53 nM, respectively.
Consider `O=[N+]([O-])c1ccc(CSc2nnc3c(n2)[nH]c2ccccc23)c([N+](=O)[O-])c1` [Example 11, 3-((2′,4′-Dinitrobenzyl)thio)-5H-[1,2,4]triazino[5,6-b]indole], for which the IC50 turned out to be 3900 nM at hCB2R and 576 nM at hCNR2 (CB2R).
The like results for `O=[N+]([O-])c1cccc(F)c1CSc1nnc2c(n1)[nH]c1ccccc12` [Example 12, 3-((2′-Fluoro-6′-nitrobenzyl)thio)-5H-[1,2,4]triazino[5,6-b]indole] were, in that order, 1900 nM and 539 nM.
Take `O=[N+]([O-])c1ccccc1CSc1nnc2c3ccccc3n(Cc3ccccc3F)c2n1` [Example 13]: the IC50 at hCB2R and at hCNR2 (CB2R) was 201 nM throughout.
For the compound `CN(C)c1ccc(C(=O)n2c3ccccc3c3nnc(SCc4ccccc4C#N)nc32)cc1` [Example 16], the “Assay 1 activity at 3 μM” value at hCB2R (at 3 μM) is approximately 40% activity at 3 μM. Also, the “Assay 2 decrease at 1 and 3 μM” value on hCNR2 (CB2R) (at 1 and 3 μM) is 20% decrease at 1 and 3 μM.
Consider `N#Cc1ccccc1CSc1nnc2c3ccccc3n(C(=O)C3CCCCC3)c2n1` [Example 18, 2′-(((5-(Cyclohexanecarbonyl)-5H-[1,2,4]triazino[5,6-b]indol-3-yl)thio)methyl)benzonitrile], for which the IC50 came to 12 nM at hCB2R and 32 nM on hCNR2 (CB2R).
As to `N#Cc1ccccc1CSc1nnc2c3ccccc3n(C(=O)c3cccc(C(F)(F)F)c3)c2n1` [Example 19], the IC50 at hCB2R amounted to 57 nM; at hCNR2 (CB2R), 27 nM.
Taken in the same sequence, the figures for `N#Cc1ccccc1CSc1nnc2c3ccccc3n(C(=O)c3ccc(F)cc3)c2n1` [Example 20, 2′-(((5-(4″-Fluorobenzoyl)-5H-[1,2,4]triazino[5,6-b]indol-3-yl)thio)methyl)benzonitrile] were 32 nM and 57 nM.
Turning to `N#Cc1ccccc1CSc1nnc2c3ccccc3n(C(=O)c3ccc(OC(F)(F)F)cc3)c2n1` [Example 21, 2′-(((5-(4″-(Trifluoromethoxy)benzoyl)-5H-[1,2,4]triazino[5,6-b]indol-3-yl)thio)methyl)benzonitrile], the IC50 on hCB2R is 111 nM; on hCNR2 (CB2R) it was 73 nM.
For `N#Cc1ccccc1CSc1nnc2c3ccccc3n(C(=O)C3CCCC3)c2n1` [Example 22, 2′-(((5-(Cyclopentanecarbonyl)-5H-[1,2,4]triazino[5,6-b]indol-3-yl)thio)methyl)benzonitrile], the IC50 on hCB2R is 14 nM; on hCNR2 (CB2R), 49 nM.
Taken in the same sequence, the figures for `N#Cc1ccccc1CSc1nnc2c3ccccc3n(C(=O)c3ccco3)c2n1` [Example 23, 2′-(((5-(Furan-2″-carbonyl)-5H-[1,2,4]triazino[5,6-b]indol-3-yl)thio)methyl)benzonitrile] were 31 nM and 46 nM.
As to `N#Cc1ccccc1CSc1nnc2c3ccccc3n(C(=O)c3ccno3)c2n1` [Example 24, 2′-(((5-(Isoxazole-5″-carbonyl)-5H-[1,2,4]triazino[5,6-b]indol-3-yl)thio)methyl)benzonitrile], the figures for the IC50 on hCB2R and at hCNR2 (CB2R) were 14 nM and 19 nM, respectively.
The like results for `N#Cc1ccccc1CSc1nnc2c3ccccc3n(C(=O)c3ccccc3)c2n1` [Example 25] were, in that order, 38 nM and 113 nM.
Take `COC(=O)CCC(=O)n1c2ccccc2c2nnc(SCc3ccccc3C#N)nc21` [Example 26, methyl 4″-(3-((2′-cyanobenzyl)thio)-5H-[1,2,4]triazino[5,6-b]indol-5-yl)-4″-oxobutanoate]: the IC50 on hCB2R was 43 nM; at hCNR2 (CB2R), 48 nM.
For the compound `COC(=O)CCCC(=O)n1c2ccccc2c2nnc(SCc3ccccc3C#N)nc21` [Example 27, methyl 5″-(3-((2′-cyanobenzyl)thio)-5H-[1,2,4]triazino[5,6-b]indol-5-yl)-5″-oxopentanoate], the IC50 on hCB2R came to 45 nM; on hCNR2 (CB2R), 42 nM.
In the case of `CCCCSc1nnc2c(n1)[nH]c1ccccc12` [Example 28, 3-(butylthio)-5H-[1,2,4]triazino[5,6-b]indole], the IC50 on hCB2R and on hCNR2 (CB2R) was 95 nM in each case.
